Measured values from paper PMC5314961 (Bioorganic & medicinal chemistry letters, 2017).
“Also recorded” adds a separate entry of the source.

How the values were obtained:
HBV [1] = details: literature report; cited from earlier work
HBV [2] = assay: Anti-HBV activity in HepAD38 cells, HBV DNA replication by real-time PCR; format: cell-based, Hepatitis B virus; details: for anti-HBV activity (result in words): HepAD38 system, concentrations up to 10 µM

Compound | inhibitor of HBV replication (reported in the literature) (HBV [1]) | anti-HBV activity (result in words) (HBV [2]) | EC50 (HBV [2]; Hepatitis B virus, HePAD38, read-out: Anti-HBV activity, EC50, HepAD38 cells, inhibition of HBV DNA replication by 50%, tested 0.001 to 10 µM, duplicate)
CC1(C)CC(=O)C2=C(C1)NC(c1cccnc1)=NC2c1ccc(F)cc1Cl (stereo not drawn) [Compound 1, reference compound] | submicromolar inhibitor | did not express any activity | –
COC(=O)C1=C(CN=[N+]=[N-])NC(c2ccccn2)=NC1c1ccc(F)cc1Cl (stereo not drawn) [Compound 21d] | – | – | 7.5 µM
CC1=C(Cl)C(c2ccc(F)cc2Cl)N=C(c2ccccn2)N1 (stereo not drawn) [Compound 26c] | – | none of them showed activity; also recorded: inactive | –
CC1=C(C(=O)OCC(F)(F)F)C(c2ccc(F)cc2Cl)N=C(c2ccccn2)N1 (stereo not drawn) [Compound 26e] | – | none of them showed activity | –
CC1=C(C(=O)NS(=O)(=O)N(C)C)C(c2ccc(F)cc2Cl)N=C(c2ccccn2)N1 (stereo not drawn) [Compound 26f] | – | none of them showed activity | –
